Legend:
Test in all cases: Competitive ABPP / direct target identification with alkyne probe 9 in HEK293 cell lysates
Assay type in all cases: binding, H. sapiens
[1] = target: T1, HEK293 cell lysates (proteome-wide targets of probe 9) (Homo sapiens, UniProt O00295); conditions: protein TULP2
T1 construct: endogenous in cells; host or cells: HEK293 cell lysate

[2] = target: T2, HEK293 cell lysates (proteome-wide targets of probe 9) (Homo sapiens, UniProt O15372); conditions: protein EIF3H
T2 construct: endogenous in cells; host or cells: HEK293 cell lysate

[3] = target: T3, HEK293 cell lysates (proteome-wide targets of probe 9) (Homo sapiens, UniProt P05165); conditions: protein PCCA
T3 construct: endogenous in cells; host or cells: HEK293 cell lysate

[4] = target: T4, HEK293 cell lysates (proteome-wide targets of probe 9) (Homo sapiens, UniProt P05455); conditions: protein SSB
T4 construct: endogenous in cells; host or cells: HEK293 cell lysate

[5] = target: T5, HEK293 cell lysates (proteome-wide targets of probe 9) (Homo sapiens, UniProt P06733); conditions: protein ENO1
T5 construct: endogenous in cells; host or cells: HEK293 cell lysate

[6] = target: T6, HEK293 cell lysates (proteome-wide targets of probe 9) (Homo sapiens, UniProt P06748); conditions: protein NPM1
T6 construct: endogenous in cells; host or cells: HEK293 cell lysate

[7] = target: T7, HEK293 cell lysates (proteome-wide targets of probe 9) (Homo sapiens, UniProt P07195); conditions: protein LDHB
T7 construct: endogenous in cells; host or cells: HEK293 cell lysate

[8] = target: T8, HEK293 cell lysates (proteome-wide targets of probe 9) (Homo sapiens, UniProt P07437); conditions: protein TUBB
T8 construct: endogenous in cells; host or cells: HEK293 cell lysate

[9] = target: T9, HEK293 cell lysates (proteome-wide targets of probe 9) (Homo sapiens, UniProt P07814); conditions: protein EPRS
T9 construct: endogenous in cells; host or cells: HEK293 cell lysate

[10] = target: T10, HEK293 cell lysates (proteome-wide targets of probe 9) (Homo sapiens, UniProt P07900); conditions: protein HSP90AA1
T10 construct: endogenous in cells; host or cells: HEK293 cell lysate

[11] = target: T11, HEK293 cell lysates (proteome-wide targets of probe 9) (Homo sapiens, UniProt P11142); conditions: protein HSPA8
T11 construct: endogenous in cells; host or cells: HEK293 cell lysate

[12] = target: T12, HEK293 cell lysates (proteome-wide targets of probe 9) (Homo sapiens, UniProt P11498); conditions: protein PC
T12 construct: endogenous in cells; host or cells: HEK293 cell lysate

[13] = target: T13, HEK293 cell lysates (proteome-wide targets of probe 9) (Homo sapiens, UniProt P11586); conditions: protein MTHFD1
T13 construct: endogenous in cells; host or cells: HEK293 cell lysate

[14] = target: T14, HEK293 cell lysates (proteome-wide targets of probe 9) (Homo sapiens, UniProt P23396); conditions: protein RPS3
T14 construct: endogenous in cells; host or cells: HEK293 cell lysate

[15] = target: T15, HEK293 cell lysates (proteome-wide targets of probe 9) (Homo sapiens, UniProt P23526); conditions: protein AHCY
T15 construct: endogenous in cells; host or cells: HEK293 cell lysate

[16] = target: T16, HEK293 cell lysates (proteome-wide targets of probe 9) (Homo sapiens, UniProt P26373); conditions: protein RPL13
T16 construct: endogenous in cells; host or cells: HEK293 cell lysate

[17] = target: T17, HEK293 cell lysates (proteome-wide targets of probe 9) (Homo sapiens, UniProt P31948); conditions: protein STIP1
T17 construct: endogenous in cells; host or cells: HEK293 cell lysate

[18] = target: T18, HEK293 cell lysates (proteome-wide targets of probe 9) (Homo sapiens, UniProt P37837); conditions: protein TALDO1
T18 construct: endogenous in cells; host or cells: HEK293 cell lysate

[19] = target: T19, HEK293 cell lysates (proteome-wide targets of probe 9) (Homo sapiens, UniProt P40926); conditions: protein MDH2
T19 construct: endogenous in cells; host or cells: HEK293 cell lysate

[20] = target: T20, HEK293 cell lysates (proteome-wide targets of probe 9) (Homo sapiens, UniProt P46781); conditions: protein RPS9
T20 construct: endogenous in cells; host or cells: HEK293 cell lysate

[21] = target: T21, HEK293 cell lysates (proteome-wide targets of probe 9) (Homo sapiens, UniProt P60866); conditions: protein RPS20
T21 construct: endogenous in cells; host or cells: HEK293 cell lysate

[22] = target: T22, HEK293 cell lysates (proteome-wide targets of probe 9) (Homo sapiens, UniProt P62805); conditions: protein HIST1H4A
T22 construct: endogenous in cells; host or cells: HEK293 cell lysate

[23] = target: T23, HEK293 cell lysates (proteome-wide targets of probe 9) (Homo sapiens, UniProt P62826); conditions: protein RAN
T23 construct: endogenous in cells; host or cells: HEK293 cell lysate

[24] = target: T24, HEK293 cell lysates (proteome-wide targets of probe 9) (Homo sapiens, UniProt P62937); conditions: protein PPIA
T24 construct: endogenous in cells; host or cells: HEK293 cell lysate

[25] = target: T25, HEK293 cell lysates (proteome-wide targets of probe 9) (Homo sapiens, UniProt P63261); conditions: protein ACTG1
T25 construct: endogenous in cells; host or cells: HEK293 cell lysate

[26] = target: T26, HEK293 cell lysates (proteome-wide targets of probe 9) (Homo sapiens, UniProt P68363); conditions: protein TUBA1B
T26 construct: endogenous in cells; host or cells: HEK293 cell lysate

[27] = target: T27, HEK293 cell lysates (proteome-wide targets of probe 9) (Homo sapiens, UniProt Q04837); conditions: protein SSBP1
T27 construct: endogenous in cells; host or cells: HEK293 cell lysate

[28] = target: T28, HEK293 cell lysates (proteome-wide targets of probe 9) (Homo sapiens, UniProt Q08211); conditions: protein DHX9
T28 construct: endogenous in cells; host or cells: HEK293 cell lysate

[29] = target: T29, HEK293 cell lysates (proteome-wide targets of probe 9) (Homo sapiens, UniProt Q13642); conditions: protein FHL1
T29 construct: endogenous in cells; host or cells: HEK293 cell lysate

[30] = target: T30, HEK293 cell lysates (proteome-wide targets of probe 9) (Homo sapiens, UniProt Q7Z5P9); conditions: protein MUC19
T30 construct: endogenous in cells; host or cells: HEK293 cell lysate

[31] = target: T31, HEK293 cell lysates (proteome-wide targets of probe 9) (Homo sapiens, UniProt Q9H6P5); conditions: protein TASP1 (Threonine aspartase 1)
T31 construct: endogenous in cells; host or cells: HEK293 cell lysate

T4 sequence (P05455 whole entry): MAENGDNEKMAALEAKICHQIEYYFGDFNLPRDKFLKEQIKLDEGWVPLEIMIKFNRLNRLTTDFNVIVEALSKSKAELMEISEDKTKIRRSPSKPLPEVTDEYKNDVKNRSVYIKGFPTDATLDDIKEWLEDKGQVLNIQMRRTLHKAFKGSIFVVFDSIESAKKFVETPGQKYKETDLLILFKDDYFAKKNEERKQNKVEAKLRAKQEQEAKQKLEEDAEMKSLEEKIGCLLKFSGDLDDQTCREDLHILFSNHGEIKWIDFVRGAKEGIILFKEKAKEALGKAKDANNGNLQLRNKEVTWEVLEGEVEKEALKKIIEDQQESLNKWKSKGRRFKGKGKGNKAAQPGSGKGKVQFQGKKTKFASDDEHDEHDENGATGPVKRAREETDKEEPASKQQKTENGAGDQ
T17 sequence (P31948 whole entry): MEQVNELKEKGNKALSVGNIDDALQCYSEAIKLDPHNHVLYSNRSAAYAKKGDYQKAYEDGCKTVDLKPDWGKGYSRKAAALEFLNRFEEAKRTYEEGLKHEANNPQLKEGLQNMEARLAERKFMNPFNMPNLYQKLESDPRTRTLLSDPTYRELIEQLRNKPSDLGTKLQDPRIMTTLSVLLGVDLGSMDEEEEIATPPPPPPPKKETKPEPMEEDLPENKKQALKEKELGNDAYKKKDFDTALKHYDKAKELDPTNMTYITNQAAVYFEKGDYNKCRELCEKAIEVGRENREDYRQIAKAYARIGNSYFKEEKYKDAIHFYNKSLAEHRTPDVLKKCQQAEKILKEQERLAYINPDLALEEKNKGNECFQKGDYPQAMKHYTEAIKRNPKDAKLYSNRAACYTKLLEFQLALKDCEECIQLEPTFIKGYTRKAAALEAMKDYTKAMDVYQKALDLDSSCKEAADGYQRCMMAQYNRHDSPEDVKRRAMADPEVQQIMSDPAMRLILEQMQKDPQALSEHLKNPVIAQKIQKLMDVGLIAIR
T13 sequence (P11586 whole entry): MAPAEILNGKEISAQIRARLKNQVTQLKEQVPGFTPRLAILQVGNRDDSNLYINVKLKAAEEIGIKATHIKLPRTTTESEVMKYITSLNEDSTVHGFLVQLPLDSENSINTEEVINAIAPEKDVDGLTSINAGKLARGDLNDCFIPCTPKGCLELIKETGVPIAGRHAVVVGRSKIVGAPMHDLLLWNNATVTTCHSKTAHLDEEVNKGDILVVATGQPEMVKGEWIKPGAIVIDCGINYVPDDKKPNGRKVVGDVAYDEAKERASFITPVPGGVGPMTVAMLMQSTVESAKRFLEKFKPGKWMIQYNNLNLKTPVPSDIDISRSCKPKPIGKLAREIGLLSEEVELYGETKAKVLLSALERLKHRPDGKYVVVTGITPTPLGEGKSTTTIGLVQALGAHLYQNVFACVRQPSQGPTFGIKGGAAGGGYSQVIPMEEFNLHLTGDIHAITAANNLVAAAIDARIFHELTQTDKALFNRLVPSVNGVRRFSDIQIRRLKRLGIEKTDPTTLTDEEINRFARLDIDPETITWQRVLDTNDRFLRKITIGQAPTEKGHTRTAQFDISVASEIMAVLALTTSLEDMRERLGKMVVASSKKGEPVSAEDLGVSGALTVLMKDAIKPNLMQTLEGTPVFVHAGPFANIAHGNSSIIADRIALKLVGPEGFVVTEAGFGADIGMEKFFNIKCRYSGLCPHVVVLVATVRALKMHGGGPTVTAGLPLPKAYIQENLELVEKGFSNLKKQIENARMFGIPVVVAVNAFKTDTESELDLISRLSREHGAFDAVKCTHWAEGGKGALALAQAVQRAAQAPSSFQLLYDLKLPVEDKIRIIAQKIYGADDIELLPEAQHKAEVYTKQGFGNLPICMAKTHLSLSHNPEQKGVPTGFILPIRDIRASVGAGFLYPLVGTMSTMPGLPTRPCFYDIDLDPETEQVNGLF
T29 sequence (Q13642 whole entry): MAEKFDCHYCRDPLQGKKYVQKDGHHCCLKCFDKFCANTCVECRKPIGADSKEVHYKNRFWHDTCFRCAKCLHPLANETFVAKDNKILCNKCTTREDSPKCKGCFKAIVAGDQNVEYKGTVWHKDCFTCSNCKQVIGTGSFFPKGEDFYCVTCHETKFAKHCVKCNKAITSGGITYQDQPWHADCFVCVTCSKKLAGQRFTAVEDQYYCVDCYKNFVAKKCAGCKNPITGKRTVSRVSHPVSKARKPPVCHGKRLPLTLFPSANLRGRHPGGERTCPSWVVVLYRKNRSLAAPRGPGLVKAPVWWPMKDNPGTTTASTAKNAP
T9 sequence (P07814 whole entry): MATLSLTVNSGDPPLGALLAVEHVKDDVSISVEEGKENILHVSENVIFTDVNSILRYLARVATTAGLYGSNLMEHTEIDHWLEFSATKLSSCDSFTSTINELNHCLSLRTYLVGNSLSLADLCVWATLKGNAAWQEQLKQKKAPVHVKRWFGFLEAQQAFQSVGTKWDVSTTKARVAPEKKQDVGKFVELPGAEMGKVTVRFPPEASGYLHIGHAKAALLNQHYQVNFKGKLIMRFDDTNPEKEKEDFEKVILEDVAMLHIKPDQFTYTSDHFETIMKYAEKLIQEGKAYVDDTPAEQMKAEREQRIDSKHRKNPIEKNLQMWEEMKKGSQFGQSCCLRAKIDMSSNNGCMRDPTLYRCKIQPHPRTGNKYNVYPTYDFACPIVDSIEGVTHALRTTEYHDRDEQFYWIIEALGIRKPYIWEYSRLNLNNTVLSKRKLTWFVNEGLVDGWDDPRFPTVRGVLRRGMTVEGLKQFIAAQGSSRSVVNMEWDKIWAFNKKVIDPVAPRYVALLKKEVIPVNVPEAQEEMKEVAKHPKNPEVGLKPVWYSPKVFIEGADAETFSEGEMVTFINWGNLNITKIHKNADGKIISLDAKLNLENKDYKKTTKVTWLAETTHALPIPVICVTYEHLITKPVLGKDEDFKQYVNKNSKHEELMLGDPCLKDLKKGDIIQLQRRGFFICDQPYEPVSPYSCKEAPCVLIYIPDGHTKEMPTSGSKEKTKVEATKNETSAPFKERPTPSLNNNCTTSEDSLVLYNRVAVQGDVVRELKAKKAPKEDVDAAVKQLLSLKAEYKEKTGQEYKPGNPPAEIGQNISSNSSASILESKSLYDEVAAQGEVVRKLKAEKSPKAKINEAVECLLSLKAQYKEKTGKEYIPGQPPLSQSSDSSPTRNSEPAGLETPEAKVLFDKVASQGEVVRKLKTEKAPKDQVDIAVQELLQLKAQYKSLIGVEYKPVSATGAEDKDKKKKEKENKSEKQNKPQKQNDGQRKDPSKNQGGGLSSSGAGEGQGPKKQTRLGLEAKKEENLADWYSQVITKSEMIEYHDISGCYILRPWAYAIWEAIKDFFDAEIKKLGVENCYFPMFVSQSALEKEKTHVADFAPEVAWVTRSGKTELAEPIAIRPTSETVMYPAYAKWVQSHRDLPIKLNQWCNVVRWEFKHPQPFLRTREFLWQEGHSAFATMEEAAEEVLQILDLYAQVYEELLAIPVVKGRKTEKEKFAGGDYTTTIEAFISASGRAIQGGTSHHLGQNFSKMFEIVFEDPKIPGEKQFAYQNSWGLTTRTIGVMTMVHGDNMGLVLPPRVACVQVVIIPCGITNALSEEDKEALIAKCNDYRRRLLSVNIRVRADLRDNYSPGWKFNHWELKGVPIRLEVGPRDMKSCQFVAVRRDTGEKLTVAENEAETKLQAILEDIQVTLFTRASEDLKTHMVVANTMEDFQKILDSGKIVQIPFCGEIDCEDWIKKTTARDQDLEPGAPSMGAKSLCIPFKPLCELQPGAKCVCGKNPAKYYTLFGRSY
T28 sequence (Q08211 whole entry): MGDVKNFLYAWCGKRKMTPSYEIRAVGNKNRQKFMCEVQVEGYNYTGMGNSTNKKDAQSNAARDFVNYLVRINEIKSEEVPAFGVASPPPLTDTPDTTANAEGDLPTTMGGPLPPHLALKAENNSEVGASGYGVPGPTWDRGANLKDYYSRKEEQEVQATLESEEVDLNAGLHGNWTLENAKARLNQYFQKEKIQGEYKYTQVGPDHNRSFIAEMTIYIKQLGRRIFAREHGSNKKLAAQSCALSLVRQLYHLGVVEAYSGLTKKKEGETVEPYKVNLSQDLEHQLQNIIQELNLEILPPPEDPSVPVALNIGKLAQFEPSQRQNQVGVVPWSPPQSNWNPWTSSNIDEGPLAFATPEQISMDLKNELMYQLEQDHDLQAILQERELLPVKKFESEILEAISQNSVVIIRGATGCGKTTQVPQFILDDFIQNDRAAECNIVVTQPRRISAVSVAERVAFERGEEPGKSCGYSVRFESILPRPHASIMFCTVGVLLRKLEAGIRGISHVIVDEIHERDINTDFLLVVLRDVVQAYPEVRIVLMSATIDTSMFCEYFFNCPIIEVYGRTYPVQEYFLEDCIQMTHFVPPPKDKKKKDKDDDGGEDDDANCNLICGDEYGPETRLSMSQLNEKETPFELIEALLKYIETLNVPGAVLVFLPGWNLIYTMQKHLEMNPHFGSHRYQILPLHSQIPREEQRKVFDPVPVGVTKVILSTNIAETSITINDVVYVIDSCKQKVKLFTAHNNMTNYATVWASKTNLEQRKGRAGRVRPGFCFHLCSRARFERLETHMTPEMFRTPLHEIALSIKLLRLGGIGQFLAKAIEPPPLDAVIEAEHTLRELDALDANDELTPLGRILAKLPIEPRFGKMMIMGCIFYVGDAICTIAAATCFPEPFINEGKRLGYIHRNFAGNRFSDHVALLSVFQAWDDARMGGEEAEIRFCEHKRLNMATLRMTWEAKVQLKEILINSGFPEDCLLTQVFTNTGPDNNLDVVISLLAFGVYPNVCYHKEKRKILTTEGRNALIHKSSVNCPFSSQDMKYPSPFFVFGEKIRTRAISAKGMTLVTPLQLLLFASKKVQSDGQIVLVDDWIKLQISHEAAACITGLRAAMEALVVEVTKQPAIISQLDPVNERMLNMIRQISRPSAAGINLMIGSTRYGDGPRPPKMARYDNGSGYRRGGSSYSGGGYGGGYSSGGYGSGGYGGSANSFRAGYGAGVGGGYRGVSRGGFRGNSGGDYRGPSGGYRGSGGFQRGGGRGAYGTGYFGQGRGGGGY

Structure (SMILES): C#CCCCP(=O)(OCC)N1CCCC(N)C1=O.O=C(O)C(F)(F)F (mixture of isomers) [Compound 9]
- Log2-fold change (9/DMSO) [1]: -0.1649
- Log2-fold change (9/DMSO) [2]: 0.7356
- Log2-fold change (9/DMSO) [3]: -0.691
- Log2-fold change (9/DMSO) [4]: 1.078
- Log2-fold change (9/DMSO) [5]: -0.0902
- Log2-fold change (9/DMSO) [6]: 0.3807
- Log2-fold change (9/DMSO) [7]: 0.03494
- Log2-fold change (9/DMSO) [8]: 1.741
- Log2-fold change (9/DMSO) [9]: 0.7172
- Log2-fold change (9/DMSO) [10]: -0.06179
- Log2-fold change (9/DMSO) [11]: 0.1798
- Log2-fold change (9/DMSO) [12]: -0.6769
- Log2-fold change (9/DMSO) [13]: 0.4766
- Log2-fold change (9/DMSO) [14]: 0.2732
- Log2-fold change (9/DMSO) [15]: -0.3328
- Log2-fold change (9/DMSO) [16]: 1.809
- Log2-fold change (9/DMSO) [17]: 1.191
- Log2-fold change (9/DMSO) [18]: 0.3993
- Log2-fold change (9/DMSO) [19]: 0.889
- Log2-fold change (9/DMSO) [20]: 0.8119
- Log2-fold change (9/DMSO) [21]: 0.9458
- Log2-fold change (9/DMSO) [22]: -0.9831
- Log2-fold change (9/DMSO) [23]: 0.5658
- Log2-fold change (9/DMSO) [24]: 1.44
- Log2-fold change (9/DMSO) [25]: 0.5764
- Log2-fold change (9/DMSO) [26]: 0.8793
- Log2-fold change (9/DMSO) [27]: -1.05
- Log2-fold change (9/DMSO) [28]: -0.5054
- Log2-fold change (9/DMSO) [29]: -0.4077
- Log2-fold change (9/DMSO) [30]: -1.528
- Log2-fold change (9/DMSO) [31]: -4.505

Structure (SMILES): CCCCCc1ccc(SCCP(=O)(OCC)N2CCC[C@H](N)C2=O)cc1.O=C(O)C(F)(F)F (some centres unmarked) [Compound 16]
- Log2-fold change (16/9) [1]: 0.6272
- Log2-fold change (16/9) [2]: -0.06894
- Log2-fold change (16/9) [3]: 0.1044
- Log2-fold change (16/9) [4]: -1.02
- Log2-fold change (16/9) [5]: 0.05891
- Log2-fold change (16/9) [6]: -0.43
- Log2-fold change (16/9) [7]: 0.1493
- Log2-fold change (16/9) [8]: -2.286
- Log2-fold change (16/9) [9]: -0.09528
- Log2-fold change (16/9) [10]: -0.09553
- Log2-fold change (16/9) [11]: -0.08018
- Log2-fold change (16/9) [12]: 0.1121
- Log2-fold change (16/9) [13]: -0.2924
- Log2-fold change (16/9) [14]: -0.6746
- Log2-fold change (16/9) [15]: -0.05498
- Log2-fold change (16/9) [16]: -0.8436
- Log2-fold change (16/9) [17]: -0.3266
- Log2-fold change (16/9) [18]: 0.1822
- Log2-fold change (16/9) [19]: -2.217
- Log2-fold change (16/9) [20]: 0.2438
- Log2-fold change (16/9) [21]: -0.8733
- Log2-fold change (16/9) [22]: 0.1177
- Log2-fold change (16/9) [23]: -1.91
- Log2-fold change (16/9) [24]: -1.716
- Log2-fold change (16/9) [25]: -0.3964
- Log2-fold change (16/9) [26]: -1.967
- Log2-fold change (16/9) [27]: -1.78
- Log2-fold change (16/9) [28]: -0.1923
- Log2-fold change (16/9) [29]: 0.2096
- Log2-fold change (16/9) [30]: 0.8224
- Log2-fold change (16/9) [31]: 0.8543

— article PMC11968843, “Sulphostin-inspired N-phosphonopiperidones as selective covalent DPP8 and DPP9 inhibitors” (Nature Communications, 2025)
